Calls of active or inactive are those of the source.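 How the source made its calls: active means EC50 of 10 µM or lower; inactive means EC50 above 10 µM.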
Tested on: DHL10 Bax/Bak-deficient cells, cytotoxicity, MTS absorbance
Test: DHL10 Bax/Bak-null cell killing – MTS absorbance, EC50, counter-screen for MCL1-BIM inhibitor project, late-stage follow-up (AID 493058)

Structure (SMILES)	EC50
COc1ccc(Cc2nnc(NC(=O)CCc3cccs3)s2)cc1OC	> 25 µM (inactive)
NS(=O)(=O)c1ccc(CCNC(=O)c2cc(-c3ccco3)nc3ccccc23)cc1	> 25 µM (inactive)
COc1ccc(Cc2nnc(NC(=O)Cc3ccncc3)s2)cc1OC	> 25 µM (inactive)
CCN(CC)C(=O)COc1ccc2c(-c3ccccc3)cc(=O)oc2c1	> 25 µM (inactive)
CCCCN(C(=O)c1cc(-c2ccco2)nc2ccccc12)c1c(N)n(CCCC)c(=O)[nH]c1=O	> 25 µM (inactive)
CN(CCOc1ccccc1)C(=O)c1cc(-c2ccco2)nc2ccccc12	> 25 µM (inactive)
Cc1ccc(-c2cc(C(=O)N(C)CC(=O)Nc3ccccc3Br)c3ccccc3n2)o1	> 25 µM (inactive)
Cc1ccc(-c2cc(C(=O)N3CC(C)CC(C)C3)c3ccccc3n2)o1 (stereo not drawn)	> 25 µM (inactive)
COc1ccc(Cc2nnc(NC(=O)Cc3ccccn3)s2)cc1OC	> 25 µM (inactive)
Cc1ccc(-c2cc(C(=O)NCC(c3ccccc3)N(C)C)c3ccccc3n2)o1 (stereo not drawn)	> 25 µM (inactive)
O=C(c1cc(-c2ccco2)nc2ccccc12)N1CCN(c2ccc(F)cc2)CC1	> 25 µM (inactive)
Cc1ccc(NC(=O)c2cc(-c3ccco3)nc3ccccc23)cc1S(=O)(=O)N1CCOCC1	> 25 µM (inactive)
Cc1cccc(NC(=O)c2cc(-c3ccco3)nc3ccccc23)n1	> 25 µM (inactive)
CCN(CC)C(=O)COc1ccc2c(-c3ccc(OC)cc3)cc(=O)oc2c1	> 25 µM (inactive)
Cc1ccc(-c2cc(C(=O)N3CCCC(C(F)(F)F)C3)c3ccccc3n2)o1 (stereo not drawn)	> 25 µM (inactive)
O=C(NCCCN1CCOCC1)c1cc(-c2ccco2)nc2ccccc12	> 25 µM (inactive)
CCc1nnc(NC(=O)c2cc(-c3ccco3)nc3ccccc23)s1	> 25 µM (inactive)
CN(CCOc1ccc(Cl)cc1)C(=O)c1cc(-c2ccco2)nc2ccccc12	> 25 µM (inactive)
COc1ccccc1NC(=O)c1cc(-c2ccc(C)o2)nc2ccccc12	> 25 µM (inactive)

Structure (SMILES)	EC50
CN(CC(=O)Nc1cccc(F)c1)C(=O)c1cc(-c2ccco2)nc2ccccc12	> 25 µM (inactive)
Cc1ccc(NC(=O)c2cc(-c3ccc(C)o3)nc3ccccc23)nc1	> 25 µM (inactive)
O=C(CCn1nnc2ccccc21)Nc1nnc(Cc2ccc(F)cc2)s1	> 25 µM (inactive)
CCOC(=O)c1cc(-c2ccco2)nc2c1c(C)nn2-c1ccccc1	> 25 µM (inactive)
Cc1ccnc(NC(=O)c2cc(-c3ccco3)nc3ccc(Br)cc23)c1	> 25 µM (inactive)
O=C(Nc1cccc(F)c1)c1cc(-c2ccco2)nc2ccccc12	> 25 µM (inactive)
Cc1ccc(-c2cc(C(=O)Nc3cccnc3)c3ccccc3n2)o1	> 25 µM (inactive)
O=C(NC1CCC(O)CC1)c1cc(-c2ccco2)nc2ccccc12 (stereo not drawn)	> 25 µM (inactive)
COc1ccccc1CC(=O)Nc1nnc(Cc2ccc(OC)c(OC)c2)s1	> 25 µM (inactive)
O=C(CCn1nnc2ccccc21)Nc1nnc(Cc2ccccc2)s1	> 25 µM (inactive)
O=C(Nc1ccccc1F)c1cc(-c2ccco2)nc2ccccc12	> 25 µM (inactive)
CC(C)CCNC(=O)c1cc(-c2ccco2)nc2ccccc12	> 25 µM (inactive)
O=C(c1cc(-c2ccco2)nc2ccccc12)N(Cc1nnc(-c2ccc(Cl)cc2)o1)C1CC1	> 25 µM (inactive)
CCCC(=O)Nc1nnc(Cc2ccccc2)s1	> 25 µM (inactive)
COc1cccc(NC(=O)c2cc(-c3ccco3)nc3ccccc23)c1	> 25 µM (inactive)
COc1ccc(Cc2nnc(NC(=O)C(=O)c3ccco3)s2)cc1OC	> 25 µM (inactive)
COc1ccc(NC(=O)c2cc(-c3ccco3)nc3ccccc23)cc1S(=O)(=O)N1CCOCC1	> 25 µM (inactive)
COc1ccc(Cc2nnc(NC(=O)Cc3ccccc3C)s2)cc1OC	> 25 µM (inactive)
COc1ccc(NC(=O)c2cc(-c3ccco3)nc3ccccc23)cc1	> 25 µM (inactive)

Reference: PubChem BioAssay AID493058 (The Scripps Research Institute Molecular Screening Center, 2011)
